Columns and labels:
Type in all cases: cell-based
MOLT-4 cells = assay: CTG (CellTiter-Glo) cell viability assay, MOLT-4; conditions: Homo sapiens, MOLT-4, 72 h, MOLT-4, 3 day; read-out: CTG Cell Viability Assay - MOLT-4 3 day: Average external-IC50
Summary of the method: (§1)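 Cells seeded at 10,000 per well, then exposed to a 9-point 1:3 dilution series from 10 µM top concentration (0.2% DMSO) for 3 days at 37 °C, 5% CO2. Viability measured by CellTiter-Glo luminescence; IC50 from a three-parameter logistic fit.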

Caki-2 cells = assay: CTG (CellTiter-Glo) cell viability assay, Caki-2; conditions: Homo sapiens, CAKI-2, 72 h, Caki-2, 3-day; read-out: CTG Chempartner/PHA- Caki-2 3-day: Average external-IC50
Summary of the method: as §1

BCL-XL = molecular target: T1, BCL-XL (Homo sapiens, UniProt Q07817); assay: BCL-XL degradation assay in MOLT-4 cells (ELISA, 6 h); conditions: for DC50: read-out: Bcl-xL ELISA in MOLT-4 degradation 6 h: External Abs-DC50
T1 construct: BCL-XL degradation results in MOLT-4 cells for compounds of the invention; endogenous in cells; host or cells: MOLT-4
T1 sequence (Q07817 whole entry): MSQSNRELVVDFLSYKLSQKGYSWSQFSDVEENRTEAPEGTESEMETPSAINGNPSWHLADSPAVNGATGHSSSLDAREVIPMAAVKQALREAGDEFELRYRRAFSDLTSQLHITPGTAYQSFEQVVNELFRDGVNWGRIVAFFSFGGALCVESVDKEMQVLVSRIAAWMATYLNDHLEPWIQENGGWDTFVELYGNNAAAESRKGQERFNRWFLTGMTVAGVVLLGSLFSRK

Row | Structure (SMILES) | IC50 (MOLT-4 cells) [nM] | IC50 (Caki-2 cells) [nM] | Dmax (BCL-XL) [%] | DC50 (BCL-XL) [nM]
1 | Cc1ncsc1-c1ccc([C@H](C)NC(=O)[C@@H]2C[C@@H](O)CN2C(=O)[C@@H](NC(=O)CCCCCC(=O)N2CCN(CCCN(C)CC[C@H](CSc3ccccc3)Nc3ccc(S(=O)(=O)NC(=O)c4ccc(N5CCC([C@@H](O)c6ccccc6-c6ccc(Cl)cc6)CC5)cc4)cc3S(=O)(=O)C(F)(F)F)CC2)C(C)(C)C)cc1 [I-24] | > 3000 | > 30000 | < 50 | 500 to 1000
2 | Cc1ncsc1-c1ccc([C@H](C)NC(=O)[C@@H]2C[C@@H](O)CN2C(=O)[C@@H](NC(=O)CCCCCCN2CCN(CC[C@H](CSc3ccccc3)Nc3ccc(S(=O)(=O)NC(=O)c4ccc(N5CCN(Cc6ccccc6-c6ccc(Cl)cc6)CC5)cc4)cc3[N+](=O)[O-])CC2)C(C)(C)C)cc1 [I-13] | > 3000 | > 30000 | 50 to 75 | 500 to 1000
3 | Cc1ncsc1-c1ccc([C@H](C)NC(=O)[C@@H]2C[C@@H](O)CN2C(=O)[C@@H](NC(=O)CCCCCC(=O)N2CCN(Cc3ccc(-c4ccc(Cl)cc4)c(CN4CCN(c5ccc(C(=O)NS(=O)(=O)c6ccc(N[C@H](CCN(C)C)CSc7ccccc7)c([N+](=O)[O-])c6)cc5)CC4)c3)CC2)C(C)(C)C)cc1 [I-7] | > 3000 | > 30000 | < 50 | 500 to 1000
4 | Cc1ncsc1-c1ccc([C@H](C)NC(=O)[C@@H]2C[C@@H](O)CN2C(=O)[C@@H](NC(=O)CCCC(=O)N2CCN(CCCNc3ccc(S(=O)(=O)NC(=O)c4ccc(N5CCC([C@H](O)c6ccccc6-c6ccc(Cl)cc6)CC5)cc4Oc4cnc5[nH]ccc5c4)cc3S(=O)(=O)C(F)(F)F)CC2)C(C)(C)C)cc1 (single isomer, unassigned) [I-60] | 1000 to 3000 | > 30000 | < 50 | 500 to 1000
5 | C#Cc1ccc([C@H](C)NC(=O)[C@@H]2C[C@@H](O)CN2C(=O)[C@@H](NC(=O)CCCCCC(=O)N2CCN(CC[C@H](CSc3ccccc3)Nc3ccc(S(=O)(=O)NC(=O)c4ccc(N5CCC([C@H](O)c6ccccc6-c6ccc(Cl)cc6)CC5)cc4)cc3S(=O)(=O)C(F)(F)F)CC2)C(C)(C)C)cc1 (single isomer, unassigned) [I-33] | 1000 to 3000 | > 30000 | 50 to 75 | 100 to 500

From US20260092057A1, “BCL-XL/BCL-2 DEGRADERS AND USES THEREOF” (Kymera Therapeutics, Inc., priority 2022, published 2026)
